Data published in patent US9346741B2, “Polyamine transport selective therapeutic agents with enhanced stability” (University of Central Florida Research Foundation, Inc., priority 2012, dated 2016).
Entries after “also recorded” stand apart in the source; their conditions may differ. Read-outs that look alike come from different tables or passages of the source.

How the values were obtained:
[1] = system: polyamine transport system (PTS) in L1210 cells; settings: cited from earlier work
MALME-3 cells = experiment: Cytotoxicity IC50 determination (MTS) in MALME-3 cells; type: cell-based, human; settings: for IC50: 96 h at 37° C., 1 mM AG, 10% FBS
Description: Armed with this insight, compounds 5a-8b were evaluated in the MALME-3M (melanoma) cell line and its non-cancerous counterpart MALME-3 obtained originally from the same patient. These matched cell lines provided a method to assess PTS selectivity for the cancer line (MALME-3M) over the non-cancerous cell line (MALME-3).
(§1) CHO and CHO-MG cells were grown in RPMI 1640 medium supplemented with 10% fetal calf serum and 1% penicillin/streptomycin. Note: the media must contain L-proline (2 μg/mL) for proper growth of the CHO-MG cells. MALME-3M cells were grown in RPMI 1640 medium supplemented with 10% FBS and 1% penicillin/streptomycin. All cells were grown at 37° C. under a humidified 5% CO2 atmosphere Aminoguanidine (1 mM) was added to the growth medium to prevent oxidation of the drugs by the enzyme (bovine serum amine oxidase) present in calf serum. Cells in early to mid-log phase were used.
(§2) Cell growth was assayed in sterile 96-well microtiter plates (Costar 3599, Corning, N.Y., USA). CHO and CHO-MG* cells were plated at 10,000 cells/mL. MALME-3M and MALME-3 cells were plated at 5,000 cells/mL. Drug solutions (10 μL per well) of appropriate concentration were added after an overnight incubation for each CHO cell line (90 μL). 48 h MALME-3M experiments were conducted using 10% Nu-Serum IV, and 96 h MALME-3M and MALME-3 experiments were conducted using 10% FBS. After exposure to the drug for 48 h (CHO, CHO-MG*, and MALME-3M) or 96 h (MALME-3M and MALME-3), cell growth was determined by measuring formazan
(§3) formation from 3-(4,5-dimethylthiazol-2-yl)-5-(3-carboxymethoxyphenyl)-2-(4-sulphenyl)-2H-tetrazolium) inner salt (MTS) using a SynergyMx Biotek microplate reader for absorbance ([…]) measurements.^24

MALME-3M cells = experiment: Cytotoxicity IC50 determination (MTS) in MALME-3M cells; type: cell-based, human
Description: Armed with this insight, compounds 5a-8b were evaluated in the MALME-3M (melanoma) cell line and its non-cancerous counterpart MALME-3 obtained originally from the same patient. These matched cell lines provided a method to assess PTS selectivity for the cancer line (MALME-3M) over the non-cancerous cell line (MALME-3). […]
as §1, §2, §3

[2] = system: MALME-3M (melanoma) vs MALME-3 (normal) cells; experiment: MALME-3/MALME-3M IC50 ratio, a measure of selectivity; type: cell-based, human; settings: 96 h; 1 mM AG
Excerpt: These matched cell lines provided a method to assess PTS selectivity for the cancer line (MALME-3M) over the non-cancerous cell line (MALME-3).

CHO-MG* cells = experiment: Cytotoxicity IC50 determination (MTS) in polyamine-transport-deficient CHO-MG* cells; type: cell-based, Chinese hamster; settings: 48 h at 37° C.
Excerpt: (§4) CHO cells were chosen along with a mutant cell line (CHO-MG*) to comment on how the synthetic conjugates gain access to the cells.^2c-e, 6 As discussed earlier, the CHO-MG cell line is polyamine-transport deficient and represents a model for alternative modes of entry (other than PTS) including passive diffusion or use of another transporter. The CHO cell line on the other hand, represents cells with high polyamine transport activity.^7, 10c A comparison of toxicity in these two CHO cell lines allowed for a screen that would detect selective use of the polyamine transporter. This is seen where high utilization of the PTS would be very toxic to CHO cells, however, there would not be the same level of toxicity found in CHO-MG cells.^2c-e, 6 Ultimately, a CHO-MG/CHO IC50 can be determined where a high ratio would be achieved for highly PTS selective compounds.
(§5) CHO and CHO-MG cells were grown in RPMI 1640 medium supplemented with 10% fetal calf serum and 1% penicillin/streptomycin. Note: the media must contain L-proline (2 μg/mL) for proper growth of the CHO-MG cells. MALME-3M cells were grown in RPMI 1640 medium supplemented with 10% FBS and 1% penicillin/streptomycin. […] Cells in early to mid-log phase were used.
as §2, §3

CHO cells = experiment: in vitro; type: cell-based; settings: for IC50: 48 h at 37° C.
Excerpt: as §4, §5, §2, §3

[3] = system: polyamine transport system (PTS), CHO-MG* vs CHO cells; experiment: CHO-MG*/CHO IC50 ratio, a measure of PTS selectivity; type: cell-based, Chinese hamster; settings: 48 h; for IC50 ratio w/AG (CHO-MG*/CHO): with 1 mM AG; for IC50 ratio w/o AG (CHO-MG*/CHO): without AG
Excerpt: Compounds with high CHO-MG/CHO IC50 ratios are considered PTS selective.
as §4

[4] = system: 60 human cancer cell lines; experiment: NCI 60 cell-line screen; type: cell-based; settings: 48 h
Description: Once compounds 6a-b, 7a-b, and 8a-8b were evaluated in CHO and CHO-MG*, these compounds were sent to the National Cancer institute (NCI) to conduct its 60 cell-line screen to determine if these compounds could also be potent anti-cancer agents for human cancer cell lines. […] As shown in FIGS. 2A-2C, dose response curves were generated based upon the 60 cell-line screen at different molar concentrations of each PTS targeting agent 6b, 7b, and 8b.
To generate FIGS. 2A-2C, the respective drug was dosed at 10 μM into each human cancer cell line and cell viability was assessed after a 48 h incubation at 37° C. in an environment of 5% CO2, 95% air and 100% relative humidity. A more descriptive methodology can be found at the NCI website: http://dtp.nci.nih.gov/branches/btb/ivclsp.html. Cell lines which gave bar graphs which extend to the right of the central line were more sensitive to the drug than cell lines which extended to the left of the center line.

[5] = system: 60 human cancer cell lines; experiment: NCI 60 cell-line screen; type: cell-based; settings: 5-dose assay
[6] = 1 mM AG 24 h prior to drug addition, read-out: CHO-MG* IC50 (μM) w/AG
[7] = without AG, read-out: CHO-MG* IC50 (μM) w/o AG
[8] = 1 mM AG 24 h prior to drug addition, read-out: CHO IC50 (μM) w/AG
[9] = without AG, read-out: CHO IC50 (μM) w/o AG
[10] = 48 h at 37° C., 1 mM AG, 10% Nu-Serum IV, read-out: MALME-3M IC50 (μM) w/ AG
[11] = 48 h at 37° C., without AG, 10% Nu-Serum IV, read-out: MALME-3M IC50 (μM) w/o AG
[12] = 96 h at 37° C., 1 mM AG, 10% FBS, read-out: MALME-3M IC50

Structure (SMILES)	Ki ([1]; read-out: Ki in L1210 cells)	MALME-3/MALME-3M IC50 ratio [2]	IC50 (CHO-MG* cells; [6])	IC50 (CHO-MG* cells; [7])	IC50 (MALME-3 cells)	IC50 (CHO cells; [8])	IC50 (CHO cells; [9])	IC50 (MALME-3M cells; [10])	IC50 (MALME-3M cells; [11])	IC50 (MALME-3M cells; [12])	IC50 ratio w/AG (CHO-MG*/CHO) [3]	IC50 ratio w/o AG (CHO-MG*/CHO) [3]	further results
NCCCCNCCCN [Spermidine, spermidine, reference compound]	2460 nM	–	–	–	–	–	–	–	–	–	–	–	non-toxic concentration in MALME-3 (MALME-3 cells; spermidine alone): up to 100 μM; non-toxic concentration in MALME-3M (MALME-3M cells; spermidine alone): up to 100 μM
NCCCCNCCCCNCc1ccc(CNCCCCNCCCCN)c2ccccc12 [Compound 7a]	170 nM	71	> 100 µM	52.1 µM	1270 nM	0.022 µM	5.5 µM	0.043 µM	0.43 µM	0.018 µM	>4545	9.5	–
NCCCCNCCCCNCc1c2ccccc2c(CNCCCCNCCCCN)c2ccccc12 [Compound 6a]	390 nM	41	> 100 µM	8.4 µM	690 nM	0.028 µM	4 µM	0.088 µM	0.29 µM	0.017 µM	>3571	2.1	–
NCCCCNCCCCNCc1cc(CNCCCCNCCCCN)cc(CNCCCCNCCCCN)c1 [Compound 32, reference compound]	–	–	–	–	–	–	–	–	–	–	1	–	Ki ([1]; unit inferred, read-out: Ki values in L1210 cells): 520 ± 110 nM; IC50 (CHO-MG* cells; Cricetulus griseus, CHO-MG, Table 4, 1 mM AG 24 h prior to drug addition, read-out: CHO-MG* IC50): > 100 µM; fold less toxic than 34a in the CHO cell line (CHO cells; CHO, versus 34a): > 3500 fold; IC50 (CHO cells; Cricetulus griseus, CHO, Table 4, 1 mM AG 24 h prior to drug addition, read-out: CHO IC50): > 100 µM; MTD (μM) in CHO (maximum tolerated dose) (CHO cells; hamster): 80 µM
CNCCCCNCCCCNCc1c2ccccc2c(CNCCCCNCCCCNC)c2ccccc12 [Compound 6b, N1,N1′-(Anthracene-9,10-diylbis(methylene))bis(N4-(4-(methylamino)butyl)butane-1,4-diamine)]	–	16	–	–	–	–	–	–	–	–	>1204	>1190	effect on breast cancer cell lines in the NCI 60 cell-line screen ([4]; 10 μM): exhibited an anti-proliferation effect in breast cancer cell lines, particularly the T-47D cell line; effect on melanoma cell lines in the NCI 60 cell-line screen ([4]; 10 μM): inhibited the proliferation of melanoma cell lines, particularly the MALME-3M cell line; NCI 60 cell-line screen, overall result ([4]; no AG): cell-targeting specificity, especially for the MALME-3M cell line; IC50 (CHO-MG* cells; Cricetulus griseus, CHO-MG, 1 mM AG 24 h prior to drug addition, read-out: CHO-MG* IC50 (μM) w/AG): > 100 µM; IC50 (CHO-MG* cells; Cricetulus griseus, CHO-MG, without AG, read-out: CHO-MG* IC50 (μM) w/o AG): > 100 µM; IC50 (MALME-3 cells; Homo sapiens, MALME-3): 1000 nM; IC50 (CHO cells; Cricetulus griseus, CHO, 1 mM AG 24 h prior to drug addition, read-out: CHO IC50 (μM) w/AG): 0.083 µM; IC50 (CHO cells; Cricetulus griseus, CHO, without AG, read-out: CHO IC50 (μM) w/o AG): 0.084 µM; IC50 (MALME-3M cells; Homo sapiens, Malme-3M, 48 h at 37° C., 1 mM AG, 10% Nu-Serum IV, read-out: MALME-3M IC50 (μM) w/ AG): 0.13 µM; IC50 (MALME-3M cells; Homo sapiens, Malme-3M, 48 h at 37° C., without AG, 10% Nu-Serum IV, read-out: MALME-3M IC50 (μM) w/o AG): 0.16 µM; IC50 (MALME-3M cells; Homo sapiens, Malme-3M, 96 h at 37° C., 1 mM AG, 10% FBS, read-out: MALME-3M IC50): 0.062 µM; NCI 5-dose assay, MALME-3M cell line [5]: dose dependent response
CNCCCCNCCCCNCc1c2ccccc2cc2ccccc12 [Compound 5b]	–	1.4	10.7 µM	11.3 µM	620 nM	2.8 µM	2.1 µM	0.6 µM	0.62 µM	0.45 µM	3.8	5.4	–
N=C(N)NN [AG, aminoguanidine, reference compound]	–	–	–	–	–	–	–	–	–	–	–	–	toxicity of 1 mM AG in MALME-3 cells (MALME-3 cells; 1 mM): ^b1 mM AG was determined to be non-toxic and incubated with MALME-3M and MALME-3 cells for 24 h prior to drug addition.; toxicity of 1 mM AG in MALME-3M cells (MALME-3M cells; 1 mM): ^b1 mM AG was determined to be non-toxic and incubated with MALME-3M and MALME-3 cells for 24 h prior to drug addition; also recorded: ^b1 mM AG was determined to be non-toxic and incubated with MALME-3M cells for 24 h prior to drug addition
